# According to patent US20080311126A1, “Antisense Oligonucleotides Directed to Ribonucleotide Reducatase R2 and Uses Thereof in Combination Therapies for the Treatment of Cancer” (Genesense Technologies, Inc, priority 2004, published 2008):
# Oligonucleotides are written 5' to 3', each unit as a sugar letter and its base; * is a phosphorothioate linkage, no mark a phosphodiester; rarer units and linkages stand in square brackets, end groups in braces. Plain capitals give the bases only. d = 2'-deoxy (DNA)
# Assays:
# Assay in all cases: Relative colony forming efficiency (Example 17, Table 13)
# Type in all cases: cell-based, human
# A549 lung cell carcinoma = details: averages of 2-8 determinations
# Protocol: (§1) Colony forming efficiency was determined using standard protocols. […] The test oligonucleotides were added to cell cultures in the presence of 2.5 μg of DOTMA/DOPE (Lipofectin; Life Technologies, Inc.) for four hours. The oligonucleotide was tested at 0.2 μM unless otherwise indicated. Controls were the cultures treated with lipofectin but without the oligonucleotide. […] Surviving cells were visualized by methylene blue staining, and colonies were scored. In some experiments cell aliquots were removed from the culture and viability was determined using the trypan blue exclusion test. Results were analyzed as percent of surviving cells compared to control cells. To test the antisense effects of many of these sequences as phosphorthioate deoxyribonucleotides, they were examined in relative colony forming experiments conducted as described in Example 16 with a series of human tumour cell lines. The results (shown as % inhibition of colony forming ability) obtained with cancer cells derived from the bladder, breast, lung, colon, pancreas, prostate, liver and cervix, are shown in Table 13. The specific cell lines employed are as follows: […]
# [1] = test system: HCT116 colon cell carcinoma; details: averages of 2-8 determinations
# Protocol: as §1
# [2] = test system: HepG2 hepatocellular carcinoma; details: averages of 2-8 determinations
# Protocol: as §1
# [3] = test system: MDA PaCa-2 pancreatic cell carcinoma; details: MIA PaCa-2 pancreatic cell carcinoma; averages of 2-8 determinations
# Protocol: as §1
# [4] = test system: PC-3 prostrate cell adenocarcinoma; details: averages of 2-8 determinations
# Protocol: as §1
# [5] = test system: T24 bladder cell carcinoma; details: averages of 2-8 determinations
# Protocol: as §1
Substance,"Reduced relative colony forming efficiency, A549 (% inhibition of colony forming ability) (A549 lung cell carcinoma)","Reduced relative colony forming efficiency, HCT116 (% inhibition of colony forming ability) [1]","Reduced relative colony forming efficiency, HepG2 (% inhibition of colony forming ability) [2]","Reduced relative colony forming efficiency, MIA PaCa-2 (% inhibition of colony forming ability) [3]","Reduced relative colony forming efficiency, PC-3 (% inhibition of colony forming ability) [4]","Reduced relative colony forming efficiency, T24 (% inhibition of colony forming ability) [5]"
AAGCGGCGGGGGTTTTCTCT (antisense dA*dA*dG*dC*dG*dG*dC*dG*dG*dG*dG*dG*dT*dT*dT*dT*dC*dT*dC*dT) [AS-II-414-20],12.44%,19.1%,30.89%,36.11%,60.94%,11.67%
ACTGCCATTGTCACTGCTAT (antisense dA*dC*dT*dG*dC*dC*dA*dT*dT*dG*dT*dC*dA*dC*dT*dG*dC*dT*dA*dT) [AS-II-1581-20],90.55%,66.85%,93.07%,24.07%,85.83%,68.22%
AGCCTCTGCCTTCTTATACA (antisense dA*dG*dC*dC*dT*dC*dT*dG*dC*dC*dT*dT*dC*dT*dT*dA*dT*dA*dC*dA) [AS-II-472-20],96.99%,67.23%,,97.13%,90.7%,69.26%
AGCTGCTGCGGGTCCGTGAT (antisense dA*dG*dC*dT*dG*dC*dT*dG*dC*dG*dG*dG*dT*dC*dC*dG*dT*dG*dA*dT) [AS-II-225-20],,59.5%,,95.44%,30.06%,73.23%
AS-II-134220 (antisense dG*dA*dA*dG*dT*dC*dA*dG*dC*dA*dT*dC*dC*dA*dA*dG*dG*dT*dA*dA),65.67%,73.74%,82.2%,73.77%,89.84%,59.76%
ATCCAGCGCAAGGCCCAGTC (antisense dA*dT*dC*dC*dA*dG*dC*dG*dC*dA*dA*dG*dG*dC*dC*dC*dA*dG*dT*dC) [AS-II-816-20],78.4%,88.22%,93.08%,93.21%,94.08%,73.91%
ATGGTACTCGATGGGGAAGA (chemistry not given here) [AS-II-439-20],76.46%,64.7%,73.04%,92.69%,77.66%,67.84%
CAAATGGGTTCTCTACTCTG (antisense dC*dA*dA*dA*dT*dG*dG*dG*dT*dT*dC*dT*dC*dT*dA*dC*dT*dC*dT*dG) [AS-II-1217-20],91.49%,68.68%,,34.85%,81.03%,66.36%
CCAGCACTATAAACAGACAG (antisense dC*dC*dA*dG*dC*dA*dC*dT*dA*dT*dA*dA*dA*dC*dA*dG*dA*dC*dA*dG) [AS-II-1517-20],,,,,91.75%,
CCGTGGGCTCCTGGAAGATC (antisense dC*dC*dG*dT*dG*dG*dG*dC*dT*dC*dC*dT*dG*dG*dA*dA*dG*dA*dT*dC) [AS-II-344-20],,,,,80.06%,
CGGCTCATCCTCCACGC (antisense dC*dG*dG*dC*dT*dC*dA*dT*dC*dC*dT*dC*dC*dA*dC*dG*dC) [AS-II-391-17],,,60.64%,26.35%,93.25%,
GAAGCCATAGAAACAGCGGG (antisense dG*dA*dA*dG*dC*dC*dA*dT*dA*dG*dA*dA*dA*dC*dA*dG*dC*dG*dG*dG) [AS-II-667-20],70.3%,,88.23%,85.26%,91.8%,70.48%
GACGGCTGGGACAGGGTGCA (antisense dG*dA*dC*dG*dG*dC*dT*dG*dG*dG*dA*dC*dA*dG*dG*dG*dT*dG*dC*dA) [AS-II-134-20],,,,,77.51%,
GCATCCAAGGTAAAAGAATT (antisense dG*dC*dA*dT*dC*dC*dA*dA*dG*dG*dT*dA*dA*dA*dA*dG*dA*dA*dT*dT) [AS-II-1335-20],78.59%,67.87%,72.98%,78.78%,90.04%,59.95%
GCGGCGGGGGTTTTCTCTCA (antisense dG*dC*dG*dG*dC*dG*dG*dG*dG*dG*dT*dT*dT*dT*dC*dT*dC*dT*dC*dA) [AS-II-412-20],43.78%,27.98%,26.23%,55.25%,73.96%,22.2%
TCAGCATCCAAGGTAAAAGA (antisense dT*dC*dA*dG*dC*dA*dT*dC*dC*dA*dA*dG*dG*dT*dA*dA*dA*dA*dG*dA) [AS-II-1338-20],63.93%,74.73%,80.41%,79.17%,93.75%,63.16%
TCCTCGCGGTCTTGCTGGCC (antisense dT*dC*dC*dT*dC*dG*dC*dG*dG*dT*dC*dT*dT*dG*dC*dT*dG*dG*dC*dC) [AS-II-323-20],91.24%,55.8%,96.39%,97.55%,79.76%,
TGGGACAGGGTGCACGGGCG (antisense dT*dG*dG*dG*dA*dC*dA*dG*dG*dG*dT*dG*dC*dA*dC*dG*dG*dG*dC*dG) [AS-II-130-20],86.48%,,94.28%,82.11%,74.66%,
TTCTGGCAAAAGGTGATACT (antisense dT*dT*dC*dT*dG*dG*dC*dA*dA*dA*dA*dG*dG*dT*dG*dA*dT*dA*dC*dT) [AS-II-1538-20],90.34%,51.28%,96.84%,50.62%,84.71%,67.29%
TTGTGTACCAGGTGTTTGAA (antisense dT*dT*dG*dT*dG*dT*dA*dC*dC*dA*dG*dG*dT*dG*dT*dT*dT*dG*dA*dA) [AS-II-1023-20],34.52%,,,42.82%,87.63%,58.26%
